Data set [1] can be described thus: Cytotoxicity against human HeLa cells after 24 hrs. The format is cell-based. The settings on record: read-out: CD50.
For data set [2], the system named is Mycobacterium tuberculosis. Kind of data set: Ratio of MIC90 for Mycobacterium tuberculosis H37Rv in iron rich GAST-D medium to MIC90 for Mycobacterium tuberculosis H37Rv in presence of iron limiting GAST-D medium. The format is functional.
Data set [3] has as its system Yersinia pestis. Kind of data set: Antimicrobial activity against Yersinia pestis KIM6-2082.1+ in presence of iron limiting PMH-D medium. It is filed as functional, organism-based.
The subject of data set [4] is Mycobacterium tuberculosis. Kind of data set: Antimycobacterial activity against Mycobacterium tuberculosis H37Rv in presence of iron rich GAST-D medium. It is filed as functional, organism-based.
Data set [5] has as its system Mycobacterium tuberculosis. Kind of data set: Antimycobacterial activity against Mycobacterium tuberculosis H37Rv in presence of iron deficient GAST-D medium. It is filed as functional, organism-based.
The test system of data set [6] is Yersinia pestis. Kind of data set: Antimicrobial activity against Yersinia pestis KIM6-2082.1+ in presence of iron rich PMH-D medium. It is filed as functional, organism-based.
In data set [7] the test system is Yersinia pestis. Kind of data set: Ratio of MIC90 for Yersinia pestis KIM6-2082.1+ in iron rich PMH-D medium to MIC90 for Yersinia pestis KIM6-2082.1+ in presence of iron limiting PMH-D medium. It is filed as functional.
For data set [8], the target named is T1, AMP-binding enzyme family protein (Yersinia pestis, UniProt Q56950).
T1 sequence (Q56950 whole entry): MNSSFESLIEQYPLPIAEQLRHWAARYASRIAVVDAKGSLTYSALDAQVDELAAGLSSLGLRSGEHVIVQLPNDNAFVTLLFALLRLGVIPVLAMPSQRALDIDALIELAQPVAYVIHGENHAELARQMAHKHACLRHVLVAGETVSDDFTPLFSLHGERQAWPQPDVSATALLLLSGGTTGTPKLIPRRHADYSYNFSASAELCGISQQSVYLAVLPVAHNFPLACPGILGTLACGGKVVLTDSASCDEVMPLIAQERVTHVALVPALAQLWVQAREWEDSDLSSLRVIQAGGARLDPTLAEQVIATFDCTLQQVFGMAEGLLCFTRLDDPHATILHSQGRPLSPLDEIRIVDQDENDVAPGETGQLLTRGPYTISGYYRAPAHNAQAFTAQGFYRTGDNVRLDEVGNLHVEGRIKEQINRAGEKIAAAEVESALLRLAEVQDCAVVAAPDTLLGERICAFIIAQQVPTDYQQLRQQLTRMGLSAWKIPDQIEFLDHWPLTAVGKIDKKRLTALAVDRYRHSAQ
Kind of data set: Inhibition of Yersinia pestis YbtE assessed as incorporation of [3H]salicyl group to HMWP2 protein.

pIC50: −log10 of the molar value.

We go through 16 compounds from ChEMBL document CHEMBL1144812, “Small molecules with structural similarities to siderophores as novel antimicrobials against Mycobacterium tuberculosis and Yersinia pestis” (Bioorg Med Chem Lett, 2008).

One may read the pIC50 as −log10 of the IC50, conventionally taken in molar units. By MIC90 is commonly meant an inhibitory concentration at the 90% level, which refers to growth in some studies and to a panel of isolates in others.

As for `Cc1ccccc1NC(=S)N1N=C(c2ccccc2O)C[C@H]1c1ccc(O)cc1`, in data set [1], the CC50 at 24 h worked out at 21 µM. The Ratio is listed as 7 in data set [2] and above 4 in the data set with Yersinia pestis [7]. In addition, the negative-log IC50 (pIC50) in the data set on Yersinia pestis [3] is 5.52; in data set [4] it was 4.08; in data set [5], 4.54; in the data set on Yersinia pestis [6], below 4.72; in data set [8], 6.15. Further, the MIC90 in the data set on Yersinia pestis [3] is 5 µM; in data set [4], 417 µM; in data set [5] it was 63 µM; in the data set with Yersinia pestis [6], above 19 µM.
With `COc1cc([C@@H]2CC(c3ccc(O)cc3O)=NN2C(=S)Nc2ccccc2)ccc1O`, the CC50 at 24 h in data set [1] was 30 µM. Besides, the values for the Ratio (in data set [2]; with Yersinia pestis [7]) were above 4 and above 75, respectively. Moreover, the negative-log IC50 (pIC50) in the data set on Yersinia pestis [3] was 6.22; in data set [4], 3.48; in data set [5], 4.08; in the data set with Yersinia pestis [6] it was below 3.82; in data set [8], 6.15. Besides, the MIC90 in the data set on Yersinia pestis [3] is 2 µM; in data set [4], above 500 µM; in data set [5], 125 µM; in the data set on Yersinia pestis [6], above 150 µM.
Turning to `Cc1ccccc1NC(=S)N1N=C(c2ccccc2O)C[C@H]1c1ccccc1O`, the CC50 at 24 h in data set [1] is 17 µM. Further, the Ratio in data set [2] was above 5; in the data set on Yersinia pestis [7], above 4. Also, the negative logarithm of the IC50 (pIC50) in the data set with Yersinia pestis [3] was 5.70; in data set [4], 4.38; in data set [5], 4.55; in the data set on Yersinia pestis [6], below 4.72; in data set [8] it was 6.00. The MIC90 was 5 µM in the data set with Yersinia pestis [3], above 500 µM in data set [4], 104 µM in data set [5] and above 19 µM with Yersinia pestis [6].
For `Cc1ccc(NC(=S)N2N=C(c3ccccc3O)C[C@H]2c2ccccc2O)cc1`, the CC50 at 24 h in data set [1] amounted to 11 µM. Besides, the Ratio is above 4 in data set [2] and above 5 with Yersinia pestis [7]. Moreover, the pIC50 in the data set on Yersinia pestis [3] is 6.10; in data set [4], 3.68; in data set [5], 4.57; with Yersinia pestis [6] it was below 5.05; in data set [8], 6.30. Also, the MIC90 in the data set on Yersinia pestis [3] is 2 µM; in data set [4], above 250 µM; in data set [5], 63 µM; in the data set on Yersinia pestis [6] it was above 9 µM.
For `COc1cc([C@@H]2CC(c3ccccc3O)=NN2C(=S)Nc2ccccc2C)ccc1O`, the CC50 at 24 h in data set [1] stood at 15 µM. Moreover, the Ratio in data set [2] is above 1; with Yersinia pestis [7], above 2. The negative-log IC50 (pIC50) was 5.52 with Yersinia pestis [3]; 4.02 in data set [4]; 4.00 in data set [5]; below 4.72 with Yersinia pestis [6]; 6.00 in data set [8]. The MIC90 in the data set on Yersinia pestis [3] is 9 µM; in data set [4], above 500 µM; in data set [5], 417 µM; in the data set with Yersinia pestis [6] it was above 19 µM.
For `Oc1ccccc1C1=NN(C(=S)Nc2ccccc2)[C@H](c2ccccc2O)C1`, the CC50 at 24 h in data set [1] is 3 µM. Further, the values for the Ratio (in data set [2]; in the data set with Yersinia pestis [7]) were 1 and above 10, respectively. Besides, the negative-log IC50 (pIC50) with Yersinia pestis [3] was 6.15; in data set [4] it was 4.19; in data set [5], 4.54; with Yersinia pestis [6], below 4.72; in data set [8] it was 6.22. Further, the MIC90 was 2 µM with Yersinia pestis [3], 100 µM in data set [4], 83 µM in data set [5] and above 19 µM with Yersinia pestis [6].
Regarding `NC(=S)N1N=C(c2ccccc2O)C[C@H]1c1ccc(O)cc1`, the CC50 at 24 h in data set [1] stood at 398 µM. Besides, in data set [2], the Ratio is listed as 16. Besides, the negative-log IC50 (pIC50) with Yersinia pestis [3] was below 4.42; in data set [4], 3.90; in data set [5], 5.10; in the data set on Yersinia pestis [6] it was below 4.42; in data set [8], 6.30. Besides, the MIC90 in the data set with Yersinia pestis [3] is above 38 µM; in data set [4], 333 µM; in data set [5], 21 µM; in the data set on Yersinia pestis [6], above 38 µM.
For the compound `COc1ccccc1NC(=S)N1N=C(c2ccc(O)cc2O)C[C@H]1c1ccc(O)cc1`, the CC50 at 24 h in data set [1] came out at 23 µM. Also, the Ratio is 2 in data set [2] and above 50 in the data set with Yersinia pestis [7]. Besides, the negative logarithm of the IC50 (pIC50) with Yersinia pestis [3] was 6.15; in data set [4], 3.81; in data set [5], 4.10; with Yersinia pestis [6] it was below 3.82; in data set [8], 6.22. In addition, the MIC90 with Yersinia pestis [3] was 3 µM; in data set [4] it was 250 µM; in data set [5], 125 µM; in the data set on Yersinia pestis [6], above 150 µM.
`Oc1ccccc1C1=NN(C(=S)Nc2ccccc2)[C@H](c2ccco2)C1`: the CC50 at 24 h in data set [1] was found to be 3 µM. For the same compound, the Ratio in data set [2] was 1; in the data set on Yersinia pestis [7], above 5. For the same compound, the pIC50 in the data set with Yersinia pestis [3] is 6.00; in data set [4], 4.14; in data set [5], 4.14; in the data set with Yersinia pestis [6], below 5.05; in data set [8], 6.52. The MIC90 was 2 µM in the data set on Yersinia pestis [3], 208 µM in data set [4], 250 µM in data set [5] and above 9 µM in the data set with Yersinia pestis [6].
Take `Oc1ccccc1[C@@H]1CC(c2ccccc2)=NN1C(=S)Nc1ccccc1`: the CC50 at 24 h in data set [1] came out at 19 µM. Further, the Ratio in data set [2] is 1. The pIC50 was below 4.72 with Yersinia pestis [3]; 4.38 in data set [4]; 4.62 in data set [5]; below 4.72 with Yersinia pestis [6]; below 4.90 in data set [8]. Also, the MIC90 in the data set on Yersinia pestis [3] was above 19 µM; in data set [4] it was 167 µM; in data set [5] it was 125 µM; in the data set on Yersinia pestis [6], above 19 µM.
As for `Oc1ccc(C2=NN(C(=S)Nc3ccccc3)[C@H](c3ccc(O)cc3)C2)cc1`, the CC50 at 24 h in data set [1] was 248 µM. Also, the Ratio in data set [2] stood at 2. The pIC50 in the data set on Yersinia pestis [3] is below 4.12; in data set [4], 3.98; in data set [5], 4.08; in the data set with Yersinia pestis [6], below 4.12; in data set [8], below 4.90. The MIC90 in the data set with Yersinia pestis [3] was above 75 µM; in data set [4], 250 µM; in data set [5] it was 125 µM; in the data set with Yersinia pestis [6] it was above 75 µM.
Take `COc1cc([C@@H]2CC(c3ccc(O)cc3O)=NN2C(=S)Nc2ccccc2OC)ccc1O`: in data set [1], the CC50 at 24 h stood at 26 µM. The Ratio in data set [2] came out at 1. Further, the negative logarithm of the IC50 (pIC50) was 4.77 in the data set with Yersinia pestis [3]; 4.26 in data set [4]; 4.29 in data set [5]; below 4.42 in the data set on Yersinia pestis [6]; 6.70 in data set [8]. Also, the MIC90 in the data set on Yersinia pestis [3] was above 38 µM; in data set [4], 125 µM; in data set [5], 125 µM; in the data set with Yersinia pestis [6] it was above 38 µM.
On to `Oc1ccc([C@@H]2CC(c3ccccc3O)=NN2C(=S)Nc2ccccc2)cc1`, for which the CC50 at 24 h in data set [1] amounted to 42 µM. For the same compound, in data set [2], the Ratio stood at 1. For the same compound, the pIC50 in the data set on Yersinia pestis [3] is below 4.72; in data set [4] it was 5.40; in data set [5], 5.52; in the data set with Yersinia pestis [6], below 4.72; in data set [8] it was 6.40. For the same compound, the MIC90 with Yersinia pestis [3] was above 19 µM; in data set [4], 12 µM; in data set [5] it was 13 µM; with Yersinia pestis [6], above 19 µM.
For `COc1ccc(NC(=S)N2N=C(c3ccc(O)cc3O)C[C@H]2c2ccc(O)cc2)cc1`, the CC50 at 24 h in data set [1] stood at 62 µM. In addition, the Ratio is given as above 3 in data set [2] and above 30 with Yersinia pestis [7]. Moreover, the negative logarithm of the IC50 (pIC50) in the data set with Yersinia pestis [3] is 6.40; in data set [4], 3.60; in data set [5], 4.20; in the data set on Yersinia pestis [6] it was below 3.82; in data set [8] it was below 4.90. Moreover, the MIC90 with Yersinia pestis [3] is 5 µM; in data set [4], above 500 µM; in data set [5] it was 167 µM; with Yersinia pestis [6], above 150 µM.
For `COc1ccc(NC(=S)N2N=C(c3ccccc3O)C[C@H]2c2ccccc2O)cc1`, the CC50 at 24 h in data set [1] stood at 1 µM. Besides, the Ratio was above 4 in data set [2] and above 0.7 in the data set with Yersinia pestis [7]. For the same compound, the pIC50 with Yersinia pestis [3] is 6.00; in data set [4] it was 3.78; in data set [5], 4.55; in the data set with Yersinia pestis [6] it was below 5.70; in data set [8] it was 6.70. The MIC90 in the data set with Yersinia pestis [3] is 3 µM; in data set [4], above 250 µM; in data set [5] it was 63 µM; with Yersinia pestis [6], above 2 µM.
Consider `CO[C@H]1/C=C/O[C@@]2(C)Oc3c(C)c(O)c4c(O)c(c(/C=N/N5CCN(C)CC5)c(O)c4c3C2=O)NC(=O)/C(C)=C\C=C\[C@H](C)[C@H](O)[C@@H](C)[C@@H](O)[C@@H](C)[C@H](OC(C)=O)[C@@H]1C` [RIFAMPIN], for which the CC50 at 24 h in data set [1] stood at 190 µM. The Ratio in data set [2] came to 1. Besides, the MIC90 in data set [4] and in data set [5] was 0.008 µM in each case.
